Reference: publication PMC7913927, “Leishmanicidal Activity of Betulin Derivatives in Leishmania amazonensis; Effect on Plasma and Mitochondrial Membrane Potential, and Macrophage Nitric Oxide and Superoxide Production” (Microorganisms, 2021)

How the values were obtained:
[1] = system: L. (L.) amazonensis LTB0016 promastigotes; assay: Promastigote in vitro susceptibility (Alamar Blue/resazurin), reference strain; format: cell-based, Leishmania amazonensis; conditions: Leishmania amazonensis; LTB0016 promastigotes, 72 h; read-out: Promastigote (GI50) mean
Procedure: The fluorometric method of Alamar Blue® (resazurin) was used. Promastigotes grown in biphasic agar-blood medium, at the exponential phase of growth, were seeded in flat-bottom 96-well culture plates, at a cell density of 1 × 10^6 parasites mL^−1 (200,000 parasites/well), in 180 µL of RPMIc without phenol red. Subsequently, either a sole concentration (50 µM), or increasing concentrations of compounds or drugs were applied, according to each treatment group, in volumes of 2 µL. Plates were kept at 26 °C, in a humid chamber, for 72 h. […] Live parasites are metabolically active and capable of reducing non-fluorescent resazurin (blue) to fluorescent resorufin (red). Fluorescence intensity is directly proportional to the number of viable cells. […] At least two independent experiments were performed in duplicate. The effect of trivalent antimonial [SbIII, potassium antimonyl tartrate trihydrate, Sigma-Aldrich, (St. Louis, MO, USA)] was included as positive control of the assay.

[2] = Cytotoxicity (Alamar Blue) in macrophages; format: cell-based, murine; conditions: mouse, J774.1 macrophages
Procedure: In flat-bottom 96-well culture plates, J774.1 macrophages were seeded at a cell density of 5 × 10^4 mL^−1 (10,000 macrophages/well) in 200 µL of RPMIc. After 24 h at 37 °C, 5% CO2, medium was replaced by 180 µL of RPMIc, without phenol red, and increasing concentrations of test compounds in 2-µL volumes. […] At least two independent experiments were performed in duplicate. Based on the inhibition of cell growth caused by the tested compounds, the percentage of growth inhibition compared to untreated cells was calculated. […] Selectivity indices (SI) were calculated, dividing the macrophage CC50 by the parasites GI50 (SI = CC50/GI50).

[3] = system: LTB0016 intracellular amastigotes in J774.1 macrophages; assay: Macrophage-amastigote model, reference strain; format: cell-based, Leishmania amazonensis
Procedure: (§1) We used a previously described methodology, with some modifications. Macrophage monolayers, grown in RMPIc medium, for 3 days, were detached from the bottom of the culture chamber, by physical treatment (low temperature and light strokes). Obtained macrophages were seeded in flat-bottom 96-well culture plates, at a density of 2 × 10^5 cells mL^−1 (40,000 macrophages/well), in a final volume of 200 µL. Plates were incubated for 2 h, and the supernatant was discarded to remove non-adhered macrophages. Medium was replaced with stationary-phase promastigotes suspended in 200 µL of RPMIc (2 × 10^6 parasites mL^−1, 400,000 parasites/well), at a macrophage: parasite ratio 1:10 [40]. The plates were incubated for 4 h. Afterwards the medium was replaced with fresh RPMIc and increasing concentrations of compounds or drugs tested were applied, in volumes of 2 µL, according to the different treatment groups. Plates were kept for 72 h, at 37 °C and 5% CO2. The medium was discarded and the wells were washed twice with PBS. Next, a Giemsa staining was performed in situ. It consisted of adding 200 µL of methanol/well, incubating for 5 min, discarding the fixative, and letting it dry at room temperature. Later, the Giemsa solution (10% in PBS w/v, 200 µL/well) was added, incubated for 10 min, and washed with PBS, allowing it to dry. Finally, the bottom of the plates was detached by percussion and the circular bottoms (wells) were fixed to slides with Permount synthetic resin, for later evaluation (Alcazar W., manuscript in preparation). Cell counting was performed with a 100× immersion objective. A minimum of 200 random macrophages were examined. The percentage of infected macrophages (% infection) and the average number of amastigotes present in infected macrophages (amastigotes) were determined. […] The infection rate represents the number of intracellular amastigotes per 100 macrophages evaluated. Additionally, the GI50 for the decrease in the infection rate was calculated. At least three independent experiments were performed. The effect of amphotericin-B (AmB) [Sigma-Aldrich, (St. Louis, MO, USA)] was included as positive control of the assay.

[4] = system: VE98MR intracellular amastigotes in J774.1 macrophages; assay: Macrophage-amastigote model, patient isolate VE98MR; format: cell-based, Leishmania amazonensis
Procedure: as §1

[5] = system: VE2000MM intracellular amastigotes in J774.1 macrophages; assay: Macrophage-amastigote model, patient isolate VE2000MM; format: cell-based, Leishmania amazonensis
Procedure: as §1

[6] = J774.1 CC50 / intracellular amastigote GI50, Table 2

C[C@@H]1[C@H](O)[C@@H](C)/C=C/C=C/C=C/C=C/C=C/C=C/C=C/[C@H](O[C@@H]2O[C@H](C)[C@@H](O)[C@H](N)[C@@H]2O)C[C@@H]2O[C@](O)(C[C@@H](O)C[C@@H](O)[C@H](O)CC[C@@H](O)C[C@@H](O)CC(=O)O[C@H]1C)C[C@H](O)[C@H]2C(=O)O [AmB, amphotericin-B, reference compound]
GI50 [1]: 0.068 µM | CC50 at 72 h [2]: > 10 µM | SI (CC50/GI50) LTB0016 [3, 6]: >500 | Growth (%) Exp1 Infección ([3]; LTB0016, 0.10 µM, 72 h, Exp1, % infected macrophages): 12.89% | Growth (%) Exp1 A/MØ ([3]; LTB0016, 0.10 µM, 72 h, Exp1, amastigotes per infected macrophage): 2.10 | Growth (%) Exp1 A/100MØ ([3]; LTB0016, 0.10 µM, 72 h, Exp1, infection index): 27.07 | Growth (%) Exp1 %Control ([3]; LTB0016, 0.10 µM, 72 h, Exp1, infection index vs DMSO): 10.32% | Growth (%) Exp2 Infección ([3]; LTB0016, 0.10 µM, 72 h, Exp2, % infected macrophages): 13.33% | Growth (%) Exp2 A/MØ ([3]; LTB0016, 0.10 µM, 72 h, Exp2, amastigotes per infected macrophage): 1.38 | Growth (%) Exp2 A/100MØ ([3]; LTB0016, 0.10 µM, 72 h, Exp2, infection index): 18.40 | Growth (%) Exp2 %Control ([3]; LTB0016, 0.10 µM, 72 h, Exp2, infection index vs DMSO): 8.65% | Growth (%) Exp3 Infección ([3]; LTB0016, 0.10 µM, 72 h, Exp3, % infected macrophages): 8.08% | Growth (%) Exp3 A/MØ ([3]; LTB0016, 0.10 µM, 72 h, Exp3, amastigotes per infected macrophage): 1.33 | Growth (%) Exp3 A/100MØ ([3]; LTB0016, 0.10 µM, 72 h, Exp3, infection index): 10.75 | Growth (%) Exp3 %Control ([3]; LTB0016, 0.10 µM, 72 h, Exp3, infection index vs DMSO): 6.05% | Average A/100MØ ([3]; LTB0016, 0.10 µM, 72 h, average of Exp1-3): 18.74 | GI50 ([3]; Leishmania amazonensis, J774.1, intracellular amastigotes, 72 h, Table 2, read-out: GI50 (µM) LTB0016): 0.02 µM | SI (CC50/GI50) VE98MR [4, 6]: >136 | GI50 ([4]; Leishmania amazonensis, J774.1, intracellular amastigotes, 72 h, Table 2, read-out: GI50 (µM) VE98MR): 0.073 µM | Growth (%) Exp1 %Control ([4]; VE98MR, dose 0.10 µM, Exp1): 10.60% | Growth (%) Exp1 A/100MØ ([4]; VE98MR, dose 0.10 µM, Exp1): 17.06 | Growth (%) Exp1 A/MØ ([4]; VE98MR, dose 0.10 µM, Exp1): 1.26 | Growth (%) Exp1 Infección ([4]; VE98MR, dose 0.10 µM, Exp1): 13.54% | Growth (%) Exp2 %Control ([4]; VE98MR, dose 0.10 µM, Exp2): 2.71% | Growth (%) Exp2 A/100MØ ([4]; VE98MR, dose 0.10 µM, Exp2): 5.60 | Growth (%) Exp2 A/MØ ([4]; VE98MR, dose 0.10 µM, Exp2): 1.16 | Growth (%) Exp2 Infección ([4]; VE98MR, dose 0.10 µM, Exp2): 4.83% | Growth (%) Exp3 %Control ([4]; VE98MR, dose 0.10 µM, Exp3): 6.21% | Growth (%) Exp3 A/100MØ ([4]; VE98MR, dose 0.10 µM, Exp3): 15.40 | Growth (%) Exp3 A/MØ ([4]; VE98MR, dose 0.10 µM, Exp3): 2.00 | Growth (%) Exp3 Infección ([4]; VE98MR, dose 0.10 µM, Exp3): 7.70% | Average A/100MØ ([4]; VE98MR, dose 0.10 µM, average of Exp1-3): 12.69 | SI (CC50/GI50) VE2000MM [5, 6]: >125 | GI50 ([5]; Leishmania amazonensis, J774.1, intracellular amastigotes, 72 h, Table 2, read-out: GI50 (µM) VE2000MM): 0.08 µM | Growth (%) Exp1 %Control ([5]; VE2000MM, dose 0.10 µM, Exp1): 7.30% | Growth (%) Exp1 A/100MØ ([5]; VE2000MM, dose 0.10 µM, Exp1): 18.04 | Growth (%) Exp1 A/MØ ([5]; VE2000MM, dose 0.10 µM, Exp1): 1.70 | Growth (%) Exp1 Infección ([5]; VE2000MM, dose 0.10 µM, Exp1): 10.61% | Growth (%) Exp2 %Control ([5]; VE2000MM, dose 0.10 µM, Exp2): 9.84% | Growth (%) Exp2 A/100MØ ([5]; VE2000MM, dose 0.10 µM, Exp2): 23.78 | Growth (%) Exp2 A/MØ ([5]; VE2000MM, dose 0.10 µM, Exp2): 2.17 | Growth (%) Exp2 Infección ([5]; VE2000MM, dose 0.10 µM, Exp2): 10.96% | Growth (%) Exp3 %Control ([5]; VE2000MM, dose 0.10 µM, Exp3): 7.62% | Growth (%) Exp3 A/100MØ ([5]; VE2000MM, dose 0.10 µM, Exp3): 17.22 | Growth (%) Exp3 A/MØ ([5]; VE2000MM, dose 0.10 µM, Exp3): 2.00 | Growth (%) Exp3 Infección ([5]; VE2000MM, dose 0.10 µM, Exp3): 8.61% | Average A/100MØ ([5]; VE2000MM, dose 0.10 µM, average of Exp1-3): 19.68
